Measurements as given in PubChem BioAssay AID330 (DTP/NCI, 2004).
“And” between values parts separate entries of the source, which are not always exact repeats. Equal entries are not always repeated. Inconclusive results and toxic doses are left out.

Test system: P388 leukemia ip, CD2F1 mice, survival T/C
Assay: NCI In Vivo Anticancer Drug Screen. Data for tumor model P388 Leukemia (intraperitoneal) in CD2F1 (CDF1) mice
Details: endpoint: median survival time, higher = longer survival
Outline: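 Mice carrying the transplanted tumor received test compound or vehicle. Survival was recorded in each group, and the value is the treated-group measurement divided by that of the vehicle-treated control group.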

[1] = dose: 60.0 mg/kg/injection, schedule: Q01DX005 (ip), vehicle: saline with Tween-80
[2] = dose: 120.0 mg/kg/injection, schedule: Q01DX005 (ip), vehicle: saline with Tween-80
[3] = dose: 240.0 mg/kg/injection, schedule: Q01DX005 (ip), vehicle: saline with Tween-80
[4] = dose: 4.0 mg/kg/injection, schedule: Q01DX009 (ip), vehicle: saline
[5] = dose: 50.0 mg/kg/injection, schedule: Q01DX005 (ip), vehicle: saline with Tween-80
[6] = dose: 100.0 mg/kg/injection, schedule: Q01DX005 (ip), vehicle: saline with Tween-80
[7] = dose: 50.0 mg/kg/injection, schedule: Q01DX009 (ip), vehicle: Klucel (hydroxypropylcellulose) (HPC)
[8] = dose: 100.0 mg/kg/injection, schedule: Q01DX009 (ip), vehicle: Klucel (hydroxypropylcellulose) (HPC)
[9] = dose: 50.0 mg/kg/injection, schedule: Q01DX009 (ip), vehicle: saline
[10] = dose: 100.0 mg/kg/injection, schedule: Q01DX009 (ip), vehicle: saline
[11] = dose: 200.0 mg/kg/injection, schedule: Q01DX009 (ip), vehicle: saline

In the case of Cc1c([N+](=O)[O-])cc(Br)c2ccccc12, the T/C (dose: 25.0 mg/kg/injection, schedule: Q01DX009 (ip), vehicle: water) is reported as 108 % of control, the T/C (dose: 50.0 mg/kg/injection, schedule: Q01DX009 (ip), vehicle: water) is reported as 94 % of control and the T/C (dose: 100.0 mg/kg/injection, schedule: Q01DX009 (ip), vehicle: water) is reported as 93 % of control.

With NNS(=O)(=O)CCC(NC(=O)OCc1ccccc1)C(=O)OCc1ccccc1 (configuration not stated) the T/C (dose: 12.5 mg/kg/injection, schedule: Q01DX009 (ip), vehicle: other) was 98 % of control, the T/C (dose: 25.0 mg/kg/injection, schedule: Q01DX009 (ip), vehicle: other) was 103 % of control and the T/C (dose: 50.0 mg/kg/injection, schedule: Q01DX009 (ip), vehicle: other) was 94 % of control. For the same compound, the T/C (dose: 100.0 mg/kg/injection, schedule: Q01DX009 (ip), vehicle: other) was 94 % of control and the T/C (dose: 200.0 mg/kg/injection, schedule: Q01DX009 (ip), vehicle: other) was 98 % of control.

In the case of COC(=O)c1nc(N)nc(C(=O)OC)c1C(=O)c1ccc(N2CCN(c3ccc(C(=O)c4c(C(=O)OC)nc(N)nc4C(=O)OC)cc3)CC2)cc1, the T/C [1] is reported as 98 % of control, the T/C [2] is reported as 97 % of control and the T/C [3] is reported as 91 % of control.

O=NN(C(=O)NC1CCC(C(=O)O)CC1)C1CCC(C(=O)O)CC1 (configuration not stated) was tested, and the T/C (dose: 25.0 mg/kg/injection, schedule: Q01DX001 (ip), vehicle: distilled water + Tween-80) was 93 % of control, the T/C (dose: 50.0 mg/kg/injection, schedule: Q01DX001 (ip), vehicle: distilled water + Tween-80) was 93 % of control and the T/C (dose: 100.0 mg/kg/injection, schedule: Q01DX001 (ip), vehicle: distilled water + Tween-80) was 93 % of control. The T/C (dose: 200.0 mg/kg/injection, schedule: Q01DX001 (ip), vehicle: distilled water + Tween-80) was 101 % of control.

With C/C1=C\CCC(C)C2CCC(C)(O2)C(O)C(O)c2c(C)coc2C1 (configuration not stated) the T/C (dose: 4.0 mg/kg/injection, schedule: Q01DX009 (ip), vehicle: Klucel (hydroxypropylcellulose) (HPC)) was 100 % of control, the T/C (dose: 8.0 mg/kg/injection, schedule: Q01DX009 (ip), vehicle: Klucel (hydroxypropylcellulose) (HPC)) was 105 % of control and the T/C (dose: 16.0 mg/kg/injection, schedule: Q01DX009 (ip), vehicle: Klucel (hydroxypropylcellulose) (HPC)) was 100 % of control. The T/C (dose: 32.0 mg/kg/injection, schedule: Q01DX009 (ip), vehicle: Klucel (hydroxypropylcellulose) (HPC)) was 94 % of control.

In the case of CNCCc1c(C2[C@@H]3[C@H](C=C(C)CC3(C)C)[C@]34Nc5ccccc5[C@]23CCN4C)[nH]c2ccccc12 (some centres not stated), the T/C [4] is reported as 100 % of control, the T/C (dose: 8.0 mg/kg/injection, schedule: Q01DX009 (ip), vehicle: saline) is reported as 94 % of control and the T/C (dose: 16.0 mg/kg/injection, schedule: Q01DX009 (ip), vehicle: saline) is reported as 103 % of control. For the same compound, the T/C (dose: 32.0 mg/kg/injection, schedule: Q01DX009 (ip), vehicle: saline) was 100 % of control.

In the case of O=S(=O)(C1CC1c1ccccc1)C1CC1c1ccc(F)cc1 (configuration not stated), the T/C [5] is reported as 100 % of control, the T/C [6] is reported as 95 % of control and the T/C (dose: 200.0 mg/kg/injection, schedule: Q01DX005 (ip), vehicle: saline with Tween-80) is reported as 101 % of control.

With C(=NCc1ccccc1)c1ccccc1-c1ccccc1C=NCc1ccccc1 the T/C (dose: 12.5 mg/kg/injection, schedule: Q01DX009 (ip), vehicle: Klucel (hydroxypropylcellulose) (HPC)) was 92 % of control, the T/C [7] was 86 % of control and the T/C [8] was 100 % of control.

With O=NN(CCCl)C(=O)Nc1ccc(CCO)cc1 the T/C (dose: 0.22 mg/kg/injection, schedule: Q01DX009 (ip), vehicle: saline + alcohol) was 118 % of control, the T/C (dose: 0.5 mg/kg/injection, schedule: Q01DX009 (ip), vehicle: saline + alcohol) was 154 % of control and the T/C (dose: 0.75 mg/kg/injection, schedule: Q01DX009 (ip), vehicle: saline + alcohol) was 172 % of control. The T/C [4] was 272 % of control, the T/C (dose: 6.0 mg/kg/injection, schedule: Q01DX009 (ip), vehicle: saline) was 272 % of control and the T/C (dose: 9.0 mg/kg/injection, schedule: Q01DX009 (ip), vehicle: saline) was 272 % of control.

In the case of CCC(=O)c1cc(Cl)ccc1O, the T/C (dose: 37.5 mg/kg/injection, schedule: Q01DX001 (ip), vehicle: other) is reported as 104 % of control, the T/C (dose: 75.0 mg/kg/injection, schedule: Q01DX001 (ip), vehicle: other) is reported as 100 % of control and the T/C (dose: 150.0 mg/kg/injection, schedule: Q01DX001 (ip), vehicle: other) is reported as 100 % of control.

For COC(=O)C(C)CP(=O)(OC)OC (configuration not stated), the T/C (dose: 50.0 mg/kg/injection, schedule: Q01DX005 (ip), vehicle: saline) was 99 % of control, the T/C (dose: 100.0 mg/kg/injection, schedule: Q01DX005 (ip), vehicle: saline) was 97 % of control and the T/C (dose: 200.0 mg/kg/injection, schedule: Q01DX005 (ip), vehicle: saline) was 99 % of control.

CC1(C)Cc2oc(=Nc3ccccc3)n(-c3ccccc3)c(=O)c2C1 was tested, and the T/C [7] was 105 % of control, the T/C [8] was 114 % of control and the T/C (dose: 200.0 mg/kg/injection, schedule: Q01DX009 (ip), vehicle: Klucel (hydroxypropylcellulose) (HPC)) was 102 % of control.

In the case of C[n+]1cccc(C2(O)CCCC2)c1, the T/C (dose: 50.0 mg/kg/injection, schedule: Q01DX009 (ip), vehicle: saline with Tween-80) is reported as 113 % of control, the T/C (dose: 100.0 mg/kg/injection, schedule: Q01DX009 (ip), vehicle: saline with Tween-80) is reported as 104 % of control and the T/C (dose: 200.0 mg/kg/injection, schedule: Q01DX009 (ip), vehicle: saline with Tween-80) is reported as 99 % of control.

With CN=C(N)N/N=C(\c1ccccc1)c1ccc(F)cc1 the T/C (dose: 12.5 mg/kg/injection, schedule: Q04DX002 (ip), vehicle: saline with Tween-80) was 99 % of control and the T/C (dose: 25.0 mg/kg/injection, schedule: Q04DX002 (ip), vehicle: saline with Tween-80) was 100 % of control and 111 % of control.

With CN(C)[C@@H]1C(=O)C(C(=O)NCNC2(C(=O)O)CCCC2)=C(O)[C@@]2(O)C(=O)C3=C(O)c4c(O)cccc4[C@@](C)(O)[C@H]3C[C@@H]12 the T/C [9] was 103 % of control, the T/C [10] was 95 % of control and the T/C (dose: 100.0 mg/kg/injection, schedule: Q01DX009 (ip), vehicle: suspension in saline) was 91 % of control. For the same compound, the T/C [11] was 106 % of control, the T/C (dose: 200.0 mg/kg/injection, schedule: Q01DX009 (ip), vehicle: suspension in saline) was 93 % of control and the T/C (dose: 400.0 mg/kg/injection, schedule: Q01DX009 (ip), vehicle: saline) was 98 % of control. For the same compound, the T/C (dose: 400.0 mg/kg/injection, schedule: Q01DX009 (ip), vehicle: suspension in saline) was 111 % of control.

CCCCC(O)c1ccc[n+]([O-])c1 (configuration not stated) was tested, and the T/C [9] was 94 % of control, the T/C [10] was 94 % of control and the T/C [11] was 93 % of control.

With Nc1nc(N)c2c(Cl)c(CNc3ccc(C(=O)NC(CC(=O)O)C(=O)O)cc3)ccc2n1 (configuration not stated) the T/C (dose: 0.39 mg/kg/injection, schedule: Q01DX009 (ip), vehicle: saline with Tween-80) was 210 % of control, the T/C (dose: 0.78 mg/kg/injection, schedule: Q01DX009 (ip), vehicle: saline with Tween-80) was 201 % of control and the T/C (dose: 1.56 mg/kg/injection, schedule: Q01DX009 (ip), vehicle: saline with Tween-80) was 90 % of control. The T/C (dose: 780.0 micrograms/kg/injection, schedule: Q01DX009 (ip), vehicle: saline with Tween-80) was 194 % of control and the T/C (dose: 1560.0 micrograms/kg/injection, schedule: Q01DX009 (ip), vehicle: saline with Tween-80) was 94 % of control.

Cc1onc(-c2c(F)cccc2Cl)c1C(=O)OCc1c(F)cccc1Cl was tested, and the T/C [1] was 99 % of control, the T/C [2] was 97 % of control and the T/C [3] was 97 % of control.

CC(=O)C[n+]1ccccc1C was tested, and the T/C [5] was 93 % of control and the T/C [6] was 107 % of control.

In the case of CC1S(=O)(=O)OCCCOS1(=O)=O, the T/C (dose: 12.5 mg/kg/injection, schedule: Q01DX005 (ip), vehicle: Klucel (hydroxypropylcellulose) (HPC)) is reported as 119 % of control and the T/C (dose: 25.0 mg/kg/injection, schedule: Q01DX005 (ip), vehicle: Klucel (hydroxypropylcellulose) (HPC)) is reported as 154 % of control.

For CC(C)(C)[Si](C)(C)O[C@H]1C=C(S(=O)(=O)c2ccccc2)[C@H](O)C1, the T/C (dose: 60.0 mg/kg/injection, schedule: Q01DX005 (ip), vehicle: Klucel (hydroxypropylcellulose) (HPC)) was 100 % of control, the T/C (dose: 120.0 mg/kg/injection, schedule: Q01DX005 (ip), vehicle: Klucel (hydroxypropylcellulose) (HPC)) was 102 % of control and the T/C (dose: 240.0 mg/kg/injection, schedule: Q01DX005 (ip), vehicle: Klucel (hydroxypropylcellulose) (HPC)) was 100 % of control.

With COc1ccc(CCN=C(C)c2cc(Cl)cc(Cl)c2O)cc1OC the T/C (dose: 50.0 mg/kg/injection, schedule: Q01DX005 (ip), vehicle: Klucel (hydroxypropylcellulose) (HPC)) was 104 % of control, the T/C (dose: 100.0 mg/kg/injection, schedule: Q01DX005 (ip), vehicle: Klucel (hydroxypropylcellulose) (HPC)) was 102 % of control and the T/C (dose: 200.0 mg/kg/injection, schedule: Q01DX005 (ip), vehicle: Klucel (hydroxypropylcellulose) (HPC)) was 95 % of control.
